This is an account of results in patent US8063053B2, “1-(arylsulfonyl)-4-(piperazin-1-yl)-1H-benzimidazoles as 5-hydroxytryptamine-6 ligands” (Wyeth LLC, priority 2008, dated 2011).

The target of the test is T1, serotonin 5-HT6 receptor subtype (Homo sapiens, UniProt P50406).
T1 construct: host or cells: CHO-Dukx-A2 cells, clone 50-7
T1 sequence (P50406 whole entry): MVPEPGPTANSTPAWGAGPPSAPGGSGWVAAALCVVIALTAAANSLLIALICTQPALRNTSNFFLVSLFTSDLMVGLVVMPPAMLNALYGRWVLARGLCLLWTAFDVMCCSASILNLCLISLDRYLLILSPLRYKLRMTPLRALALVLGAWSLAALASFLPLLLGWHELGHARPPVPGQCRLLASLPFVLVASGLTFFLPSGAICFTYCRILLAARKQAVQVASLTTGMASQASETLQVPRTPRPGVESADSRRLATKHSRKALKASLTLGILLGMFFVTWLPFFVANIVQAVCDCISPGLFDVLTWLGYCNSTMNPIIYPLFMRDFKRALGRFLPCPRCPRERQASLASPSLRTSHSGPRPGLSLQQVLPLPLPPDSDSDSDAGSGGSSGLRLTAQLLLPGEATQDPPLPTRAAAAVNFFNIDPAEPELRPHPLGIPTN
The test is described as follows: 5-HT6 binding affinity ([3H]-LSD SPA binding). Particulars: read-out: 5-HT6 binding Ki.
As to `Cc1ccc(S(=O)(=O)n2c(C(C)C)nc3c(N4CCNCC4)cccc32)c2ccccc12` [Example 64, 2-(1-methylethyl)-1-[(4-methylnaphthalen-1-yl)sulfonyl]-4-piperazin-1-yl-1H-benzimidazole], the Ki stood at 1.6 nM. As for `Cc1ccc(S(=O)(=O)n2c(C)nc3c(N4CCNCC4)cccc32)c2ccccc12` [Example 51, 2-methyl-1-[(4-methyl-1-naphthyl)sulfonyl]-4-piperazin-1-yl-1H-benzimidazole], the inhibitory constant (Ki) was determined as 6.27 nM. Turning to `Cc1ccc(S(=O)(=O)n2cnc3c(N4CCNCC4)cccc32)cc1` [Example 27, 1-[(4-methylphenyl)sulfonyl]-4-piperazin-1-yl-1H-benzimidazole], the Ki was found to be 2.5 nM. The result for `Cc1nc2c(N3C[C@@H]4C[C@H]3CN4)cccc2n1S(=O)(=O)c1ccccc1` [Example 109, 4-[(1S,4S)-2,5-diazabicyclo[2.2.1]hept-2-yl]-2-methyl-1-(phenylsulfonyl)-1H-benzimidazole] reads 30.5 nM; that for `CC(C)C1CN(c2cccc3c2ncn3S(=O)(=O)c2ccccc2Cl)CCN1` (centres unmarked) [Example 122, 1-[(2-chlorophenyl)sulfonyl]-4-(3-isopropylpiperazin-1-yl)-1H-benzimidazole], 1.08 nM. With `O=S(=O)(c1ccc(C(F)(F)F)cc1)n1cnc2c(N3CCNCC3)cccc21` [Example 40, 4-piperazin-1-yl-1-{[4-(trifluoromethyl)phenyl]sulfonyl}-1H-benzimidazole], the Ki was 18.9 nM. Consider `COc1ccc(C)cc1S(=O)(=O)n1cnc2c(N3CCNCC3)cccc21` [Example 68, 1-[(2-methoxy-5-methylphenyl)sulfonyl]-4-piperazin-1-yl-1H-benzimidazole], for which the Ki turned out to be 0.498 nM.

Regarding `CCN1CCN(c2cccc3c2ncn3S(=O)(=O)c2ccccc2)CC1` [Example 7, 4-(4-ethylpiperazin-1-yl)-1-(phenylsulfonyl)-1H-benzimidazole], the Ki amounted to 0.394 nM.

As for `Cc1nc2c(N3C[C@@H](C)N[C@@H](C)C3)cccc2n1S(=O)(=O)c1cccc2ccccc12` [Example 97, 4-[(3R,5S)-3,5-dimethylpiperazin-1-yl]-2-methyl-1-(naphthalen-1-ylsulfonyl)-1H-benzimidazole], the inhibitory constant (Ki) worked out at 3.8 nM. For `O=S(=O)(c1cc(C(F)(F)F)ccc1Cl)n1cnc2c(N3CCNCC3)cccc21` [Example 71, 1-{[2-chloro-5-(trifluoromethyl)phenyl]sulfonyl}-4-piperazin-1-yl-1H-benzimidazole], the inhibition constant Ki is 13.7 nM.

With `CC1CN(c2cccc3c2ncn3S(=O)(=O)c2cccc(Cl)c2)CCN1` (centres unmarked) [Example 54, 1-[(3-chlorophenyl)sulfonyl]-4-(3-methylpiperazin-1-yl)-1H-benzimidazole], the Ki turned out to be 1.92 nM. As to `Cc1c(Cl)cccc1S(=O)(=O)n1cnc2c(N3CCN[C@H](C)C3)cccc21` [Example 77, 1-[(3-chloro-2-methylphenyl)sulfonyl]-4-[(3R)-3-methylpiperazin-1-yl]-1H-benzimidazole], the Ki amounted to 1.2 nM. Take `Cc1c(Cl)cccc1S(=O)(=O)n1cnc2c(N3C[C@@H]4C[C@H]3CN4)cccc21` [Example 108, 1-[(3-chloro-2-methylphenyl)sulfonyl]-4-[(1S,4S)-2,5-diazabicyclo[2.2.1]hept-2-yl]-1H-benzimidazole]: the Ki came out at 2.86 nM. As for `Cc1nc2c(N3C[C@@H](C)N[C@@H](C)C3)cccc2n1S(=O)(=O)c1ccccc1Cl` [Example 98, 1-[(2-chlorophenyl)sulfonyl]-4-[(3R,5S)-3,5-dimethylpiperazin-1-yl]-2-methyl-1H-benzimidazole], the Ki was 3.5 nM.
